Experimental data taken from PMC8766184, “Molecular Docking, Synthesis, and Tyrosinase Inhibition Activity of Acetophenone Amide: Potential Inhibitor of Melanogenesis” (BioMed Research International, 2022).
Where two headings read alike, the source gives them in different places.

What was measured:
[1] = molecular target: T1, mushroom tyrosinase (Agaricus bisporus, UniProt C7FF04); assay: In vitro mushroom tyrosinase inhibition assay (L-DOPA substrate, dopachrome absorbance); assay type: biochemical
T1 construct: purchased Sigma Aldrich
Protocol: In vitro antityrosinase potential was determined following the method previously described with little modifications [33, 34]. Briefly, 140 μL of sodium phosphate buffer, 20 μL (30 U/mL) of the enzyme mushroom tyrosinase, and 20 μL of the tested compound were added in a well of a 96-well microplate. After a preincubation of 10 minutes at room temperature of 20 μL (0.85 mM), the substrate L-DOPA was added followed by an incubation of 20 minutes at the same temperature. Subsequently, the absorbance of the intermediate dopachrome was recorded by using an Opti Max tunable microplate reader (Sunnyvale, USA) at 472 nm. […] The negative inhibitor was a phosphate buffer without an inhibitor.

[2] = molecular target: T1, mushroom tyrosinase; assay: Mushroom tyrosinase inhibitory kinetics (Lineweaver-Burk and Dixon plots); assay type: biochemical
Protocol: Various concentrations of the inhibitor 5c were among 0.00 to 0.013 μM and that of L-DOPA was 0.00 to 0.0064 μM during all kinetic assays. For preincubation and calculations, the same protocol was followed as described in in vitro tyrosinase inhibition assay and continuous monitoring at 30 s interval for 5 minutes after adding the enzyme tyrosinase, and the formation of dopachrome was measured at 475 nm. The enzyme inhibitory action and the kind of inhibition were determined by the Lineweaver-Burk and Dixon plots. 1/V (inverse of velocities) versus 1/[S] (inverse of substrate concentration) mM^−1 were plotted to determine inhibition constant Ki.
The enzyme inhibitory interaction mechanism of 3(a–e) and 5(a–e) with the binding site of mushroom tyrosinase was determined using Michaelis-Menten kinetic studies. […] A striking reduction in the reaction rate in the presence of inhibitors refers to a decrease in the final absorbance in comparison to control without inhibitors. The inhibitory index of all these tested compounds varied depending upon the position of various substituents and classes of compounds [27]. Inhibition kinetics was analyzed by the Lineweaver-Burk and Dixon plots.

T1 sequence (C7FF04 1-392): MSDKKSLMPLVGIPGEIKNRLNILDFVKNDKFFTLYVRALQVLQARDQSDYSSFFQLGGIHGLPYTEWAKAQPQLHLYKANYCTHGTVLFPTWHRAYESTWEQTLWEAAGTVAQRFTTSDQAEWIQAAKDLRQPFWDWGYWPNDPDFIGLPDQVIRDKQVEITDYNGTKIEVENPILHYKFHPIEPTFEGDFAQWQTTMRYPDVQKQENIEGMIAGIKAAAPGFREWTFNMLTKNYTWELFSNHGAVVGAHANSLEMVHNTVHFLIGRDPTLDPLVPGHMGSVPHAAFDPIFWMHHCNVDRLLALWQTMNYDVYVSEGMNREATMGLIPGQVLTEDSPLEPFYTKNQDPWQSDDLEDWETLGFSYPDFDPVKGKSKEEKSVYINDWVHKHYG

Row | SMILES | IC50 [1] [µM] | also measured
1 | CC(=O)c1cccc(NC(=O)COC(=O)c2cccc(O)c2)c1 [Compound 3a, 2-(3-acetylphenylamino)-2-oxoethyl-3-hydroxybenzoate] | 323 ± 16.9 | 
2 | CC(=O)c1cccc(NC(=O)COC(=O)c2ccc(O)cc2)c1 [Compound 3b, 2-(3-acetylphenylamino)-2-oxoethyl-4-hydroxybenzoate] | 288 ± 32.2 | 
3 | CC(=O)c1cccc(NC(=O)COC(=O)c2ccc(O)cc2O)c1 [Compound 3c, 2-(3-acetylphenylamino)-2-oxoethyl 2,4-dihydroxybenzoate] | 27.4 ± 3.6 | 
4 | CC(=O)c1cccc(NC(=O)COC(=O)c2ccc(O)c(O)c2)c1 [Compound 3d, 2-(3-acetylphenylamino)-2-oxoethyl 3,4-dihydroxybenzoate] | 128 ± 8.5 | 
5 | CC(=O)c1cccc(NC(=O)COC(=O)c2cc(O)cc(O)c2)c1 [Compound 3e, 2-(3-acetylphenylamino)-2-oxoethyl 3,5-dihydroxybenzoate] | 255 ± 14.2 | 
6 | CC(=O)c1cccc(NC(=O)COC(=O)C=Cc2ccccc2)c1 [Compound 5a, 2-(3-acetylphenylamino)-2-oxoethylcinnamate] | 46.4 ± 5.8 | melting point: 159 to 161 °C
7 | CC(=O)c1cccc(NC(=O)COC(=O)/C=C/c2ccc(O)cc2)c1 [Compound 5b, 2-(3-acetylphenylamino)-2-oxoethyl(E)-3-(4-hydroxyphenyl) acrylate] | 309 ± 36.8 | 
8 | CC(=O)c1cccc(NC(=O)COC(=O)/C=C/c2ccc(O)cc2O)c1 [Compound 5c, 2-(3-acetylphenylamino)-2-oxoethyl(E)-3-(2,4-dihydroxyphenyl)acrylate] |  | Ki ([2]; Dixon plot, L-DOPA substrate, read-out: dissociation constant (Ki)): 7.2 nM; type of inhibition ([2]; Lineweaver-Burk plot, L-DOPA substrate): competitive; reversibility of inhibition ([2]; remaining enzyme activity vs enzyme concentration at various inhibitor doses, L-DOPA): reversible; IC50 ([1]; L-DOPA 0.85 mM substrate, enzyme 30 U/mL, absorbance at 472 nm, read-out: Mushroom tyrosinase inhibition IC50 ± SEM): 0.002 ± 0.0002 µM
9 | CC(=O)c1cccc(NC(=O)COC(=O)/C=C/c2ccc(Cl)cc2)c1 [Compound 5d, 2-(3-acetylphenylamino)-2-oxoethyl(E)-3-(4-chlorophenyl)acrylate] | 61.6 ± 11.4 | 
